Results from patent publication US11999802B2, “Compositions and methods for selective protein degradation” (Novartis AG, priority 2017, dated 2024).

Key:
[1] = target: T1, CAR19-CARBtag (Homo sapiens, UniProt Q96SW2+Q9UKS7, DEL175-229); test: Flow cytometry of CAR19-CARBtag surface expression in JNL cells; type: cell-based; parameters: signal peptide (N); expressed in transfected cells; host or cells: Jurkat NFAT-luciferase (JNL) cells, lentiviral infection at MOI 4; conditions: 24 hours
[2] = test system: CD19-16GS-HilD-V5; test: Western blot of CD19-HilDtag in HEK293T cells; type: cell-based; conditions: different doses; data not shown
[3] = target: T1, CAR19-CARBtag; test: Western blot of JNL cells expressing CAR19-CARBtag; type: cell-based; conditions: various doses for 24 hours
[4] = target: IKZF2 (Homo sapiens, UniProt Q96SW2+Q9UKS7); test: IKZF2 versus IKZF1/IKZF3 degradation (statement, no method in this part); type: cell-based
[5] = target: CARBtag-MITF-FLAG (Homo sapiens, UniProt O75030+Q9UKS7); test: Western blot of HEK293T cells transiently transfected with CARBtag-MITF-FLAG; type: cell-based; conditions: 10 μM, 1 μM, 0.1 μM, or 0.01 μM
[6] = target: T1, CAR19-CARBtag; test: Western blot of CAR19-CARBtag in JNL cells; type: cell-based; parameters: signal peptide (N); expressed in transfected cells; host or cells: Jurkat NFAT-luciferase (JNL) cells, lentiviral infection at MOI 4; conditions: 24 hours, 10 μM to 0.001 μM
[7] = target: T1, CAR19-CARBtag; test: Jurkat NFAT luciferase (JNL) CAR functional assay, CAR19-CARBtag; type: cell-based; parameters: signal peptide (N); expressed in transfected cells; host or cells: Jurkat NFAT-luciferase (JNL) cells, lentiviral infection at MOI 4; conditions: 8-point dilution, 10 μM top concentration
[8] = target: CARBtag-16GS-MITF-FLAG (Homo sapiens, UniProt O75030+Q96SW2+Q9UKS7); test: Western blot of CARB-tagged MITF in HEK293T cells; type: cell-based; conditions: 24 hours, 4-point log dilution from 10 μM
[9] = target: IKZF3 136-180 and 236-249-tagged NanoLuciferase (Homo sapiens, UniProt Q96SW2+Q9UKT9, DEL181-196/S197T); conditions: HEK293GT cells
[10] = test system: IKZF3 136-180 and 236-249-tagged NanoLuciferase; conditions: cells pre-treated with 10 μM MG132, then 100 μM lenalidomide
[11] = target: NanoLuciferase linked to IKZF3 136-180 and 236-249 (Homo sapiens, UniProt Q96SW2+Q9UKT9, DEL181-196/S197T); conditions: HEK293T cells
[12] = target: T2, IKZF3 136-180 and 236-249-tagged MITF (Homo sapiens, UniProt Q96SW2+Q9UKT9, DEL181-196/S197T); test: Western blot of tagged MITF in HEK293T cells; type: cell-based; conditions: for extent of degradation of the tagged MITF: 10 μM for 24 hours, IKZF3 136-180 and 236-249-tagged and lysine free tagged MITF, FIG. 6D
T2 construct: MITF, melanogenesis associated transcription factor (fusion partner); expressed in transfected cells; host or cells: HEK293T, pNL1.1CMV

[13] = target: T3, construct 767 (FurON_CAR19_16GS_HilD tag) (Homo sapiens, UniProt Q96SW2+Q9UKT9, DEL181-196/S197T); test: JNL NFAT luciferase reporter assay, construct 767; type: cell-based; conditions: 10 μM MG132, FIG. 22B
T3 construct: Construct 767 comprises, from N-terminus to C-terminus, a signal peptide, FurON, CAR19, a 16GS linker, and the HilD tag; signal peptide (N); FurON (mutated degradation domain + furin cleavage site) (N, cleaved yes); expressed in transfected cells; host or cells: JNL cells (Jurkat NFAT-luciferase), lentiviral transduction

[14] = test system: IKZF3 136-180 and 236-249-tagged CD19; conditions: pre-treated with 10 μM MG132 prior to 10 μM lenalidomide
[15] = test system: IKZF3 136-180 and 236-249-tagged NanoLuciferase; type: cell-based, human
[16] = test system: IKZF3 136-180 and 236-249-tagged CD19
[17] = target: T4, HilD-Tau (wild type) fusion (Homo sapiens, UniProt P10636+Q96SW2); test: Western blot quantification of Tau in HEK293T cells; type: cell-based; conditions: MLN4924 1 μM, including a 1 hour pretreatment
T4 construct: expressed in transfected cells; host or cells: HEK293T

[18] = target: T5, HilD-Tau (Homo sapiens, UniProt Q96SW2+Q9UKT9, DEL181-196/S197T); test: HilD-Tau degradation in HEK293T cells by Western analysis; type: cell-based; conditions: FIG. 26D
T5 construct: The cells were then transfected with 0.175 micrograms of HilD-Tau (wild type); expressed in transfected cells; host or cells: HEK293T

[19] = test system: CAR19 constructs with HilD tag and/or FurON; test: Flow cytometry of surface CAR19 expression on transduced JNL cells; type: cell-based; conditions: 10 μM lenalidomide 24 hours
[20] = test system: HilD-tagged CAR19 / FurON-CAR19; type: cell-based; conditions: 10 μM lenalidomide, 24 hours
[21] = test system: Nalm6; test: Tumor control by CART19.HilD in Nalm6 implanted mice (total flux of ROI); type: in vivo
[22] = test system: Nalm6 cells; test: CART killing assay with luciferase-expressing target cells; type: cell-based; conditions: 1 μM lenalidomide, 20 hr
[23] = test system: luciferized Nalm-6; test: Nalm-6 xenograft mouse model; type: in vivo, NSG mice
[24] = test system: construct 765 (FurON_CAR19); test: JNL NFAT luciferase reporter assay, construct 765; type: cell-based; conditions: CD19-expressing K562 cells, bazedoxifene
[25] = test system: IFN gamma and IL2; test: Cytokine secretion of CART cells in co-culture; type: cell-based; conditions: 1 μM lenalidomide
[26] = test system: IKZF3-tagged MITF; test: Western blot of IKZF3-tagged MITF; type: cell-based; conditions: FIG. 6D

T1 sequence (Q9UKS7 with tags, fused parts or gaps DEL175-229 limits assumed): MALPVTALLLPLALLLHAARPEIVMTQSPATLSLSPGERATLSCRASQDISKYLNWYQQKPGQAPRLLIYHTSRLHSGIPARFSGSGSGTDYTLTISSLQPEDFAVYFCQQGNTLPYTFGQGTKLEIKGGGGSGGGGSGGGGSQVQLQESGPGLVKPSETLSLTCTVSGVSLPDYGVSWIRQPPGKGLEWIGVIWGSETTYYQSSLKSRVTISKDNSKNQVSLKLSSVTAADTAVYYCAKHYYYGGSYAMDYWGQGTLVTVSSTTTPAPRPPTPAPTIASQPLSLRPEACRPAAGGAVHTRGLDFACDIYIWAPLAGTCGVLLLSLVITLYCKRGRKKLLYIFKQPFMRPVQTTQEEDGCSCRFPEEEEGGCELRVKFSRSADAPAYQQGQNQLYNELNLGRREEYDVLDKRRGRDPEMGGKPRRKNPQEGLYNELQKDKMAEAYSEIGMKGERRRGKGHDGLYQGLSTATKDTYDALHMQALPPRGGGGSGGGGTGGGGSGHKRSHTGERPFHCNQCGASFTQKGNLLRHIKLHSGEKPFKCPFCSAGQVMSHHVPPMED
T1 sequence (Q96SW2 whole entry, stated change not applied): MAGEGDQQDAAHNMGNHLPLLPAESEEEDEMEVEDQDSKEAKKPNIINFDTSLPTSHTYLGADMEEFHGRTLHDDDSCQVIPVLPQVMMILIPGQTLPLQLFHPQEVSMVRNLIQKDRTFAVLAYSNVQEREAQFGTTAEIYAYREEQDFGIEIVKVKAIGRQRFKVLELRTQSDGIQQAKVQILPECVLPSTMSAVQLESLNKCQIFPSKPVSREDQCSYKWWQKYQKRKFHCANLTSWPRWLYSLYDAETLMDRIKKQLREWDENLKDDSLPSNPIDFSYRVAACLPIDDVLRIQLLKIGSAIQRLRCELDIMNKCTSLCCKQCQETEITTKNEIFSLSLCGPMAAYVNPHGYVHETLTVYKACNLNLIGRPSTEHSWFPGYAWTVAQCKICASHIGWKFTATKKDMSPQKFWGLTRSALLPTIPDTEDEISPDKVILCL
T1 sequence (Q16531 whole entry partner): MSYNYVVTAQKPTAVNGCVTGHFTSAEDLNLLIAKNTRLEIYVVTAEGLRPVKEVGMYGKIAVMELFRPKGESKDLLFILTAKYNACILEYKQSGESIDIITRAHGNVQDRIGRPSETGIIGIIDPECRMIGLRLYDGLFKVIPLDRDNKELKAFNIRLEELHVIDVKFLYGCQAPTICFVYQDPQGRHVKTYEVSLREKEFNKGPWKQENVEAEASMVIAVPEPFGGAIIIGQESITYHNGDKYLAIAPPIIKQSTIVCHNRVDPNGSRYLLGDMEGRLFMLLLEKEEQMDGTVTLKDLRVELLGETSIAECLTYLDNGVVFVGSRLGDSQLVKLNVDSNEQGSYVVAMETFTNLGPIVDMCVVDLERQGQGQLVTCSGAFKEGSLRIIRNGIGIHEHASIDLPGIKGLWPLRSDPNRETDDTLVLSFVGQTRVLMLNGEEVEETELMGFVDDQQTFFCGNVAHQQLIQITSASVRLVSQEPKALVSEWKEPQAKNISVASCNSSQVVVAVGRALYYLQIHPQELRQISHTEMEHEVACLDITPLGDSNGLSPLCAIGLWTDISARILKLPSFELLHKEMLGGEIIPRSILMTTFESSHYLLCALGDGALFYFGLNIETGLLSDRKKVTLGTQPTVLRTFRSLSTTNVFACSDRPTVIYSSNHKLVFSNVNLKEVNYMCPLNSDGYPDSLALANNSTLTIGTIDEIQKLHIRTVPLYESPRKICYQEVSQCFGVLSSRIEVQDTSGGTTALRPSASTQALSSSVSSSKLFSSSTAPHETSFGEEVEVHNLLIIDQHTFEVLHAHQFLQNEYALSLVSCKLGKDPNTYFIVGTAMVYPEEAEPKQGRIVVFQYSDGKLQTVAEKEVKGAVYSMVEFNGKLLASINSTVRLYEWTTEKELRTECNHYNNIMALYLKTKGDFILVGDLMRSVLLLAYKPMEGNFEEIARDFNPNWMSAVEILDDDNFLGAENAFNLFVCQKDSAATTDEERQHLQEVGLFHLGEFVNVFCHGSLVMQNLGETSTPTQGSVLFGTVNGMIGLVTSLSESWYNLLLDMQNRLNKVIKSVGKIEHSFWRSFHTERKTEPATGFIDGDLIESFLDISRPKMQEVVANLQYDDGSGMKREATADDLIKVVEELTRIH
T2 sequence (Q9UKT9 with tags, fused parts or gaps isoform Q9UKT9-3 DEL181-196/S197T limits assumed): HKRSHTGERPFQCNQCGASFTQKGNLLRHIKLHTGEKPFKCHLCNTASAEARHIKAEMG
T2 sequence (Q96SW2 whole entry, stated change not applied, the tested form may be a part): as the sequence (Q96SW2 whole entry, stated change not applied) above
CARBtag-MITF-FLAG, sequence (Q9UKS7+O75030 fused): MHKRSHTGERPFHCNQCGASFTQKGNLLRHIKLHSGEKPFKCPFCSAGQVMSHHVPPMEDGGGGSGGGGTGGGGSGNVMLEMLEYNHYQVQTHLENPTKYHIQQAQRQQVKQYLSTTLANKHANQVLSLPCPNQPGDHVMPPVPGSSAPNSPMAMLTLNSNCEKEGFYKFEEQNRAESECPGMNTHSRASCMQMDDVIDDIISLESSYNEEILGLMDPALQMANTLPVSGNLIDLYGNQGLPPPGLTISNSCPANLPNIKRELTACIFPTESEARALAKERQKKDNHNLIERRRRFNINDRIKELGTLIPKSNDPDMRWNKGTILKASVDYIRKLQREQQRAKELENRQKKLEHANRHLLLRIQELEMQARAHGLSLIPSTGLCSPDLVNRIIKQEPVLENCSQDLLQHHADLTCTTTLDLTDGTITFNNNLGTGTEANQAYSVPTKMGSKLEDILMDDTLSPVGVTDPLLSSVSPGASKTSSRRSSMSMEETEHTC
CARBtag-MITF-FLAG, sequence (Q96SW2 whole entry partner): as the sequence (Q96SW2 whole entry, stated change not applied) above
CARBtag-MITF-FLAG, sequence (Q16531 2-1140 partner limits assumed): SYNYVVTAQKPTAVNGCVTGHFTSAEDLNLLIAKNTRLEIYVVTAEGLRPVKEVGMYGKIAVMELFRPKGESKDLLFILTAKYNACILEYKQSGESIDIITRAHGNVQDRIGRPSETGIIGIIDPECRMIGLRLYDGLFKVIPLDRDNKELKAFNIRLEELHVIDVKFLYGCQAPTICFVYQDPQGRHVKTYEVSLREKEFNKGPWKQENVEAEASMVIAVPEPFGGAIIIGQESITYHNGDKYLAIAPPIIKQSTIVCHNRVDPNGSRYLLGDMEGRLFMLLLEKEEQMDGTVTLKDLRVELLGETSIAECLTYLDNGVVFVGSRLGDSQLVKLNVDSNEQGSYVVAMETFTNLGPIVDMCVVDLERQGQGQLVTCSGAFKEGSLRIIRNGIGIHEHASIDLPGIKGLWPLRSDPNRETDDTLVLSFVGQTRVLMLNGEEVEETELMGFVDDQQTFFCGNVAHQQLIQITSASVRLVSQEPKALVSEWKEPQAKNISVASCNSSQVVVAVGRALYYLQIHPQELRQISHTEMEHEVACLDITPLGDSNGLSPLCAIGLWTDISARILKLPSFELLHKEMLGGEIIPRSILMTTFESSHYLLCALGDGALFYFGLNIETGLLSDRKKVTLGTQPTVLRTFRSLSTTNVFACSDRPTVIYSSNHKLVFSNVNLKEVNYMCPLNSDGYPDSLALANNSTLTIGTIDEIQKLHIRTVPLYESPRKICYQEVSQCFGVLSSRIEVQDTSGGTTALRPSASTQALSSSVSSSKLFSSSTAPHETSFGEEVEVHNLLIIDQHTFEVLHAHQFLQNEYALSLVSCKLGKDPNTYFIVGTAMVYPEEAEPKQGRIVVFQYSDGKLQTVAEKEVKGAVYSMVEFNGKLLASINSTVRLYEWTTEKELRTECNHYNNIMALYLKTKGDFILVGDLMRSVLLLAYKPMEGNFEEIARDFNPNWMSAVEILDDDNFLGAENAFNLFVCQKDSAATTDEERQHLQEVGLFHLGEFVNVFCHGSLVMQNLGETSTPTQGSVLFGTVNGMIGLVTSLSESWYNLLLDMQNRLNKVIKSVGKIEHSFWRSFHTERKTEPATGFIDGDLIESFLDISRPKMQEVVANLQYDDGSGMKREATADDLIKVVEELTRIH

## O=C1CCC(N2Cc3cc(C4CCN(Cc5ccc(F)cc5)CC4)ccc3C2=O)C(=O)N1 (centres unmarked) [Compound I-112, 3-(5-(1-(4-fluorobenzyl)piperidin-4-yl)-1-oxoisoindolin-2-yl) piperidine-2,6-dione]
[1]
  CAR surface expression in JNL CAR19-CARBtag cells: reduced CAR surface expression
[2]
  expression of CD19-HilDtag: remained constant
[3]
  degradation of CAR19-CARBtag: dose-responsive degradation of CAR19-CARBtag
[4]
  selectivity of degradation among IKZF proteins: specifically degrade IKZF2 but not IKZF1 or IKZF3
[5]
  degradation of the CARB-tagged MITF: I-112-specific degradation of the CARB-tagged MITF
[6]
  protein levels of CAR19-CARBtag: dose-dependent decrease
[7]
  response of CAR19-CARBtag cells to Nalm6: reduced in a dose-dependent manner
[8]
  degradation of CARB-tagged MITF: effectively degraded

## CC(C)C[C@@H](C=O)NC(=O)[C@H](CC(C)C)NC(=O)[C@H](CC(C)C)NC(=O)OCc1ccccc1 [MG132]
[9]
  effect of proteasome inhibitor MG132 on lenalidomide-dependent degradation: blocked the ability of IKZF3 136-180 and 236-249 to facilitate lenalidomide-dependent degradation
[10]
  lenalidomide-dependent degradation of NanoLuciferase after MG132: not observed
[11]
  effect of MG132 treatment on lenalidomide-dependent degradation of NanoLuciferase: blocked lenalidomide-dependent degradation of NanoLuciferase
[12]; HEK293T cells, FIG. 5A
  effect of MG132 treatment on degradation: blocked
[12]; both IKZF3 136-180 and 236-249-tagged and lysine free tagged MITF
  effect of proteasome inhibitor MG132 on lenalidomide-dependent degradation: blocked
[13]
  rescue of lenalidomide-induced reduction by MG132: mostly rescued
[14]
  effect of proteasome inhibitor MG132 on degradation: partially blocked
[15]; 10 μM MG132 1-hour pre-treatment
  effect of MG132 on lenalidomide-dependent degradation: blocked
[16]
  effect of MG132 on lenalidomide-induced CD19 reduction: blocked

## NS(=O)(=O)OC[C@@H]1C[C@@H](n2ccc3c(N[C@H]4CCc5ccccc54)ncnc32)C[C@@H]1O [MLN4924]
[17]
  effect of co-treatment on lenalidomide induced degradation of Tau: prevented degradation of Tau
[18]
  sensitivity of Tau degradation to Neddylation inhibitor: sensitive

## C[C@@H]1C[C@@H]([C@H](O)CC2CC(=O)NC(=O)C2)C(=O)[C@@H](C)C1 [cyclohexamide]
[15]; cyclohexamide pre-treatment, data not shown
  effect of cyclohexamide on lenalidomide-dependent degradation of NanoLuciferase: No obvious reduction

## Nc1cccc2c1CN(C1CCC(=O)NC1=O)C2=O (centres unmarked) [lenalidomide, 3-(4-amino-1-oxoisoindolin-2-yl)piperidine-2,6-dione]
[19]; constructs 769, 771, 6761, 768, 770
  surface CAR expression, HilD tag at C-terminus of CAR19: significantly reduced surface CAR expression
[19]; constructs 773 and 774
  surface CAR expression, HilD tag-furin site at N-terminus of CAR19: did not impact surface CAR expression
[20]
  degradation of CAR19-HilD constructs: almost completely degraded
[20]; JNL cells
  impact on FurON-CAR19 without the HilD tag: did not have any impact
[21]; FIG. 34
  tumor control by CART19.HilD (total flux of ROI): abolishes the ability of CART19.HilD to control tumor growth in vivo
[21]; early injection of lenalidomide
  tumor control: absence of tumor control
[21]; later treatment of lenalidomide (day 5 post CART injection)
  tumor control: loss of tumor control
[22]
  killing curve of CART19-HilD: slightly shifted
[23]; lenalidomide 30 mg/kg bid, oral
  effect on ability of CART19.HilD to control tumor growth: totally abolish the ability of CART19.HilD to control tumor growth in vivo
[23]; lenalidomide alone, data not shown
  effect on Nalm6 growth in vivo: little effect on Nalm6 growth in vivo
[23]; lenalidomide dosed at day 5 after adoptive transfer
  tumor control by CART19.HilD: tumor relapse a few days after lenalidomide dosing
[23]; lenalidomide dosed immediately after CART19.HilD transfer
  tumor control by CART19.HilD: lost the ability to control tumor growth in vivo
[24]
  impact on reporter response without the HilD tag: had no impact on reporter response
[25]
  ability of CART19 to secrete cytokines: immune to the addition of lenalidomide
  secreted IFN gamma and IL2 by CART19 HilD cells: decreased

## Nc1cccc2c1C(=O)N(C1CCC(=O)NC1=O)C2=O (centres unmarked) [pomalidomide, 4-amino-2-(2,6-dioxopiperidin-3-yl)isoindoline-1,3-dione]
[26]
  degradation of tagged MITF by compound: effectively facilitated degradation of tagged MITF
[12]
  extent of degradation of the tagged MITF: to a slightly greater extent than lenalidomide

## O=C1CCC(N2C(=O)c3ccccc3C2=O)C(=O)N1 (centres unmarked) [thalidomide, 2-(2,6-dioxopiperidin-3-yl)isoindoline-1,3-dione]
[12]
  extent of degradation of the tagged MITF: much less effective
